Test results taken from PubChem BioAssay (NCI).
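Interpolation was linear, between the two tested concentrations surrounding the appropriate level; five concentrations were tested over 48 hours in 96-well plates. GI50 = concentration required for 50% inhibition of growth. TGI denotes the concentration required for complete inhibition of growth.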

Experiments:
Assay in all cases: NCI-60 cell line screen, 48 h; in the data active = GI50 below about 0.43 µM; inactive = the rest
BT-549 breast = system: BT-549 breast
A498 renal = system: A498 renal
MCF7 breast = system: MCF7 breast
MALME-3M melanoma = system: MALME-3M melanoma
HCT-116 colon = system: HCT-116 colon
OVCAR-3 ovarian = system: OVCAR-3 ovarian
HOP-62 NSCLC = system: HOP-62 NSCLC
SNB-19 CNS = system: SNB-19 CNS
PC-3 prostate = system: PC-3 prostate
786-0 renal = system: 786-0 renal
ACHN renal = system: ACHN renal
RPMI-8226 leukemia = system: RPMI-8226 leukemia
U251 CNS = system: U251 CNS
SK-MEL-28 melanoma = system: SK-MEL-28 melanoma
HS 578T breast = system: HS 578T breast
HCT-15 colon = system: HCT-15 colon
COLO 205 colon = system: COLO 205 colon
T-47D breast = system: T-47D breast
NCI/ADR-RES ovarian = system: NCI/ADR-RES ovarian
K-562 leukemia = system: K-562 leukemia
CAKI-1 renal = system: CAKI-1 renal
HL-60(TB) leukemia = system: HL-60(TB) leukemia
SF-295 CNS = system: SF-295 CNS
A549 NSCLC = system: A549 NSCLC
SW-620 colon = system: SW-620 colon
KM12 colon = system: KM12 colon
NCI-H23 lung = system: NCI-H23 lung
SNB-75 CNS = system: SNB-75 CNS
SF-268 CNS = system: SF-268 CNS
SF-539 CNS = system: SF-539 CNS
NCI-H226 lung = system: NCI-H226 lung
CCRF-CEM leukemia = system: CCRF-CEM leukemia
NCI-H522 lung = system: NCI-H522 lung
MOLT-4 leukemia = system: MOLT-4 leukemia
OVCAR-8 ovarian = system: OVCAR-8 ovarian
HCC-2998 colon = system: HCC-2998 colon
IGROV1 ovarian = system: IGROV1 ovarian
TK-10 renal = system: TK-10 renal
HOP-92 NSCLC = system: HOP-92 NSCLC
NCI-H460 lung = system: NCI-H460 lung
SN12C renal = system: SN12C renal
SR leukemia = system: SR leukemia
SK-MEL-5 melanoma = system: SK-MEL-5 melanoma
LOX IMVI melanoma = system: LOX IMVI melanoma
DU-145 prostate = system: DU-145 prostate
UACC-62 melanoma = system: UACC-62 melanoma
OVCAR-4 ovarian = system: OVCAR-4 ovarian
M14 melanoma = system: M14 melanoma
HT29 colon = system: HT29 colon
MDA-MB-435 = system: MDA-MB-435
UO-31 renal = system: UO-31 renal
OVCAR-5 ovarian = system: OVCAR-5 ovarian
UACC-257 melanoma = system: UACC-257 melanoma
SK-OV-3 ovarian = system: SK-OV-3 ovarian
EKVX NSCLC = system: EKVX NSCLC
RXF 393 renal = system: RXF 393 renal
SK-MEL-2 melanoma = system: SK-MEL-2 melanoma
MDA-MB-231 breast = system: MDA-MB-231 breast

Cn1cc(-c2nonc2-c2cn(C)c3ccccc23)c2ccccc21
active: GI50 (A498 renal) 337 nM | GI50 (OVCAR-3 ovarian) 402 nM | GI50 (K-562 leukemia) 342 nM | GI50 (SF-295 CNS) 420 nM | GI50 (SW-620 colon) 425 nM | GI50 (SNB-75 CNS) 176 nM | GI50 (NCI-H522 lung) 402 nM | GI50 (SR leukemia) 406 nM | GI50 (MDA-MB-435) 228 nM
inactive: GI50 (BT-549 breast) 1370 nM | GI50 (MCF7 breast) 591 nM | GI50 (MALME-3M melanoma) 1060 nM | GI50 (HCT-116 colon) 610 nM | GI50 (HOP-62 NSCLC) 1250 nM | GI50 (SNB-19 CNS) 910 nM | GI50 (PC-3 prostate) 1420 nM | GI50 (786-0 renal) 1630 nM | GI50 (ACHN renal) 1470 nM | GI50 (RPMI-8226 leukemia) 967 nM | GI50 (U251 CNS) 689 nM | GI50 (SK-MEL-28 melanoma) 4680 nM | GI50 (HS 578T breast) 508 nM | GI50 (HCT-15 colon) 537 nM | GI50 (COLO 205 colon) 2540 nM | GI50 (T-47D breast) 4770 nM | GI50 (NCI/ADR-RES ovarian) 626 nM | GI50 (CAKI-1 renal) 653 nM | GI50 (HL-60(TB) leukemia) 483 nM | GI50 (A549 NSCLC) 1220 nM | GI50 (KM12 colon) 661 nM | GI50 (NCI-H23 lung) 1980 nM | GI50 (SF-268 CNS) 1600 nM | GI50 (SF-539 CNS) 559 nM | GI50 (NCI-H226 lung) 3250 nM | GI50 (CCRF-CEM leukemia) 703 nM | GI50 (MOLT-4 leukemia) 1720 nM | GI50 (OVCAR-8 ovarian) 1500 nM | GI50 (HCC-2998 colon) 3070 nM | GI50 (IGROV1 ovarian) 1530 nM | GI50 (TK-10 renal) 6230 nM | GI50 (HOP-92 NSCLC) 4160 nM | GI50 (NCI-H460 lung) 579 nM | GI50 (SN12C renal) 1760 nM | GI50 (SK-MEL-5 melanoma) 1340 nM | GI50 (LOX IMVI melanoma) 1240 nM | GI50 (DU-145 prostate) 1270 nM | GI50 (UACC-62 melanoma) 442 nM | GI50 (OVCAR-4 ovarian) 2740 nM | GI50 (M14 melanoma) 469 nM | GI50 (HT29 colon) 519 nM | GI50 (UO-31 renal) 972 nM | GI50 (OVCAR-5 ovarian) 4510 nM | GI50 (UACC-257 melanoma) 50400 nM | GI50 (SK-OV-3 ovarian) 1280 nM | GI50 (EKVX NSCLC) 1700 nM | GI50 (RXF 393 renal) 827 nM | GI50 (SK-MEL-2 melanoma) 1220 nM | GI50 (MDA-MB-231 breast) 1350 nM
> 72700 nM: TGI (HOP-62 NSCLC)
21900 nM: TGI (RXF 393 renal)
635 nM: TGI (MDA-MB-435)
842 nM: TGI (SNB-75 CNS)
1720 nM: TGI (HL-60(TB) leukemia)
2190 nM: TGI (SF-539 CNS)
3420 nM: TGI (OVCAR-3 ovarian)
24600 nM: TGI (HS 578T breast)
> 100000 nM: TGI (BT-549 breast) | TGI (MCF7 breast) | TGI (MALME-3M melanoma) | TGI (HCT-116 colon) | TGI (SNB-19 CNS) | TGI (PC-3 prostate) | TGI (786-0 renal) | TGI (ACHN renal) | TGI (RPMI-8226 leukemia) | TGI (U251 CNS) | TGI (SK-MEL-28 melanoma) | TGI (HCT-15 colon) | TGI (COLO 205 colon) | TGI (T-47D breast) | TGI (NCI/ADR-RES ovarian) | TGI (K-562 leukemia) | TGI (CAKI-1 renal) | TGI (SF-295 CNS) | TGI (A549 NSCLC) | TGI (SW-620 colon) | TGI (KM12 colon) | TGI (NCI-H23 lung) | TGI (SF-268 CNS) | TGI (NCI-H226 lung) | TGI (CCRF-CEM leukemia) | TGI (NCI-H522 lung) | TGI (MOLT-4 leukemia) | TGI (OVCAR-8 ovarian) | TGI (HCC-2998 colon) | TGI (IGROV1 ovarian) | TGI (TK-10 renal) | TGI (HOP-92 NSCLC) | TGI (NCI-H460 lung) | TGI (SN12C renal) | TGI (SR leukemia) | TGI (SK-MEL-5 melanoma) | TGI (LOX IMVI melanoma) | TGI (DU-145 prostate) | TGI (UACC-62 melanoma) | TGI (OVCAR-4 ovarian) | TGI (M14 melanoma) | TGI (HT29 colon) | TGI (UO-31 renal) | TGI (OVCAR-5 ovarian) | TGI (UACC-257 melanoma) | TGI (SK-OV-3 ovarian) | TGI (EKVX NSCLC) | TGI (SK-MEL-2 melanoma) | TGI (MDA-MB-231 breast)
